In assay [1] the target is 6 isoform of PI3K (Homo sapiens, UniProt O00329). Briefly: Activity against PI3K delta isoform (printed "6"). As to conditions: independently synthesized compound.
Assay [2] deals with ZR.75.1 cell lines. As to the kind of experiment: MTT cell growth inhibition, combination with taxol, ZR.75.1. The assay is classed as cell-based. As to conditions: combined with taxol, 72 hrs. The procedure:
(§1) Assay 6: Combination of Compound M1 with Standard Agents in Different Cell Lines
(§2) Day 0 • The cells were pelleted and counted. • Cells were plated at desired density (100 μl/well) in complete media in a 96-well plate in triplicates. A column for Day “0” reading was also seeded. (18-20 hrs after initial plating and before addition of the inhibitors) • Plates were incubated at 37° C. and 5% CO2. Day 1 • 10 μl of MTT (5 mg/ml) were added to the column designated for Day “0”. It was mixed well and incubated at 37° C. and 5% CO2 for 3.5 h. Cells were pelleted down at 4000 rpm for 10 minutes. • Media was aspirated out and 150 μl of DMSO were added to the cells and mixed by pipetting to dissolve the crystals • The plate was read at A560 nm and A640 nm. Day 2 • A series of dilutions of the inhibitors were initially made in 100% DMSO and further diluted in growth medium. • Cells were treated with either single agent of DMSO, compound M1, taxol, and a combination of compound M1 and taxol (MDA-MB-231, MCF-7, ZR.75.1 and SK-OV-3). […] Crystals were dissolved by repeated pipetting. • The plate was read at A560 nm and A640 nm. […]
(§3) Reference absorbance values were subtracted from test absorbance values. Day 0 values were subtracted from final day absorbance values for determining cell growth. % Cell growth inhibitions were calculated.

In assay [3] the test system is SK-OV-3 cell lines. Briefly: MTT cell growth inhibition, combination with taxol, SK-OV-3. The assay is classed as cell-based. As to conditions: combined with taxol, 72 hrs. The procedure:
as §1, §2, §3

Assay [4] concerns SK-OV-3 cell lines. As to the kind of experiment: MTT cell growth inhibition, combination with talzoparib, SK-OV-3. It is filed as cell-based. The conditions noted are these: combined with talzoparib, 72 hrs. The procedure: (§4) Assay 5: Combination of Compound M1 with Standard Agents in Different Cell Lines
(§5) Day 0 • The cells were pelleted and counted. • Cells were plated at desired density (100 μl/well) in complete media in a 96-well plate in triplicates. A column for Day “0” reading was also seeded. (18-20 hrs after initial plating and before addition of the inhibitors) • Plates were incubated at 37° C. and 5% CO2. Day 1 • 10 μl of MTT (5 mg/ml) were added to the column designated for Day “0”. It was mixed well and incubated at 37° C. and 5% CO2 for 3.5 h. Cells were pelleted down at 4000 rpm for 10 minutes. • Media was aspirated out and 150 μl of DMSO were added to the cells and mixed by pipetting to dissolve the crystals • The plate was read at A560 nm and A640 nm. Day 2 • A series of dilutions of the inhibitors were initially made in 100% DMSO and further diluted in growth medium. • Cells were treated with either single agent of DMSO, compound M1, talzoparib, and combination of compound M1 and talzoparib (OVCAr-3 and SK-OV-3). […]
(§6) The plate was read at A560 nm and A640 nm.
as §3

Assay [5] deals with y isoform of PI3K (Homo sapiens, UniProt P48736). As to the kind of experiment: Activity against PI3K gamma isoform (printed "y" / "7"). As to conditions: independently synthesized compound.
The test system of assay [6] is OVCAr-3 cell lines. Briefly: MTT cell growth inhibition, combination with talzoparib, OVCAR-3. The assay is classed as cell-based. As to conditions: combined with talzoparib, 72 hrs. The procedure:
as §4, §5, §6, §3

Assay [7] deals with MDA-MB-231 cell lines. Briefly: MTT cell growth inhibition, combination with taxol, MDA-MB-231. It is filed as cell-based. As to conditions: combined with taxol, 72 hrs. How it is done: as §1, §2, §3
Assay [8] concerns MV-4-11 cell lines. As to the kind of experiment: MTT cell growth inhibition, single agent or combination, MV-4-11. The assay is classed as cell-based. The conditions noted are these: combined with azacytidine or ventoclax, 72 hrs. The procedure: Assay 4: Compound M1 as a Single Agent or in Combination with Azacytidine, or Venetoclax was Determined in the AML Lines: THP-1, U937, and MV-4-11.
Day 0 • The cells were pelleted and counted. • Cells were plated at desired density (100 μl/well) in complete media in a 96-well plate in triplicates. A column for Day “0” reading was also seeded (18-20 hrs after initial plating and before addition of the inhibitors) • Plates were incubated at 37° C. and 5% CO2. Day 1 • 10 μl of MTT (5 mg/ml) were added to the column designated for Day “0”. It was mixed well and incubated at 37° C. and 5% CO2 for 3.5 h. Cells were pelleted down at 4000 rpm for 10 minutes. • Media was aspirated out and 150 μl of DMSO were added to the cells and mixed by pipetting to dissolve the crystals • Plate was read at A560 nm and A640 nm. […] Crystals were dissolved by repeated pipetting. • The plate was read at A560 nm and A640 nm. […]
Reference absorbance values were subtracted from test absorbance values. Day 0 values were subtracted from final day absorbance values for determining cell growth. Percent cell growth inhibitions were calculated.

Chain of y isoform of PI3K (P48736 whole entry, canonical isoform): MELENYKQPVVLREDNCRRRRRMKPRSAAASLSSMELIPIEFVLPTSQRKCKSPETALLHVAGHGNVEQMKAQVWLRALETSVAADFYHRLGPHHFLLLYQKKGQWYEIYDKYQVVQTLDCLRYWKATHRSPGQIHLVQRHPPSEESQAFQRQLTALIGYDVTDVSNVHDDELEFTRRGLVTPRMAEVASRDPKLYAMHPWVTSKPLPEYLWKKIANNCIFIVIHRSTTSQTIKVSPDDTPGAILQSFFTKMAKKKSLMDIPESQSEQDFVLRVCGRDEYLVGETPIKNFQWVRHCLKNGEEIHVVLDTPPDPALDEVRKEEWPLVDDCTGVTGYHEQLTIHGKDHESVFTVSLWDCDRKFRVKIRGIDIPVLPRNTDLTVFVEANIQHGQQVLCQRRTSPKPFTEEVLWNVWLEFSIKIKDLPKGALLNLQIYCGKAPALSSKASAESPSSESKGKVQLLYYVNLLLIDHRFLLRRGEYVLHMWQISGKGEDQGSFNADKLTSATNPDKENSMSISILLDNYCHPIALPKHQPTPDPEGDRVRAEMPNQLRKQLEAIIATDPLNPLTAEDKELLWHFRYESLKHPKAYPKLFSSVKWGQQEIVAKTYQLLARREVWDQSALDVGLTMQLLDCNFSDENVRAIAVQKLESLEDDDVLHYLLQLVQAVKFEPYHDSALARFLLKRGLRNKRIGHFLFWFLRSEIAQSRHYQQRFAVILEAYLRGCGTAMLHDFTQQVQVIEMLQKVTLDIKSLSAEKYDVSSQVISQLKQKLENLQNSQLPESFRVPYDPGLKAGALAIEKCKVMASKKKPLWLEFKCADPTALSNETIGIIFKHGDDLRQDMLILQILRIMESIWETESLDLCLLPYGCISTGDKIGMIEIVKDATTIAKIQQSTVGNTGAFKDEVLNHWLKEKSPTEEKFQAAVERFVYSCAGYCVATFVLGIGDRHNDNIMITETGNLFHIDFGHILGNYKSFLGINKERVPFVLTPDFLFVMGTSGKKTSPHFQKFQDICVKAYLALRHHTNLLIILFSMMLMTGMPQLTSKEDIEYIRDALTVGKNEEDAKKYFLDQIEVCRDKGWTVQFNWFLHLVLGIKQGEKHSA
Chain of 6 isoform of PI3K (O00329 whole entry, canonical isoform): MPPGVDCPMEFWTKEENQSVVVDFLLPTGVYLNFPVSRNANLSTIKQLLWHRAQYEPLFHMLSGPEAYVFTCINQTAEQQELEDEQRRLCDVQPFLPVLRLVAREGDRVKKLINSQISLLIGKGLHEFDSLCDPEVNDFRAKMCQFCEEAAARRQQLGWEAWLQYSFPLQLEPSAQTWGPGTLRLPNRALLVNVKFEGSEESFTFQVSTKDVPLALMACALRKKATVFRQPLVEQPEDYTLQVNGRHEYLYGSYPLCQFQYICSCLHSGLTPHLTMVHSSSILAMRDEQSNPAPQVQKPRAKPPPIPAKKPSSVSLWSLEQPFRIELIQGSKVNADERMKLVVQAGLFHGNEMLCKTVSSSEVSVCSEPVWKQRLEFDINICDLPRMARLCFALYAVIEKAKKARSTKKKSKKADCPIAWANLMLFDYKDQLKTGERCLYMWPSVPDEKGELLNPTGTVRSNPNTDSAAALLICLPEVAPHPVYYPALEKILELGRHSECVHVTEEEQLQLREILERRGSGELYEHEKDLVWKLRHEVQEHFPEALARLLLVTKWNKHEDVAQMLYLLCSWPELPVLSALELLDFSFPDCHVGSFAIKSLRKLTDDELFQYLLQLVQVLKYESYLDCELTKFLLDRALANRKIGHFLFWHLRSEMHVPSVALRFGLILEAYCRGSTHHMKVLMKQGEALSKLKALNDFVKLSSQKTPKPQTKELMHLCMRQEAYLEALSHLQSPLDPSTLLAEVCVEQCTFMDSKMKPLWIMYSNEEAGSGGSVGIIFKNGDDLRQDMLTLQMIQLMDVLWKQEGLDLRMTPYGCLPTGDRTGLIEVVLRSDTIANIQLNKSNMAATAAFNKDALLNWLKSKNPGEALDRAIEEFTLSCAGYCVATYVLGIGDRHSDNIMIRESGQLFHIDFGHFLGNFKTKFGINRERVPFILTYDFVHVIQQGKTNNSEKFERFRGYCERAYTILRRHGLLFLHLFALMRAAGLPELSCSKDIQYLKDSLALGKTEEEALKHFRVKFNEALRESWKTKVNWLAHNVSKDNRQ
Chain of 6 isoform of PI3K (P27986 whole entry partner, canonical isoform): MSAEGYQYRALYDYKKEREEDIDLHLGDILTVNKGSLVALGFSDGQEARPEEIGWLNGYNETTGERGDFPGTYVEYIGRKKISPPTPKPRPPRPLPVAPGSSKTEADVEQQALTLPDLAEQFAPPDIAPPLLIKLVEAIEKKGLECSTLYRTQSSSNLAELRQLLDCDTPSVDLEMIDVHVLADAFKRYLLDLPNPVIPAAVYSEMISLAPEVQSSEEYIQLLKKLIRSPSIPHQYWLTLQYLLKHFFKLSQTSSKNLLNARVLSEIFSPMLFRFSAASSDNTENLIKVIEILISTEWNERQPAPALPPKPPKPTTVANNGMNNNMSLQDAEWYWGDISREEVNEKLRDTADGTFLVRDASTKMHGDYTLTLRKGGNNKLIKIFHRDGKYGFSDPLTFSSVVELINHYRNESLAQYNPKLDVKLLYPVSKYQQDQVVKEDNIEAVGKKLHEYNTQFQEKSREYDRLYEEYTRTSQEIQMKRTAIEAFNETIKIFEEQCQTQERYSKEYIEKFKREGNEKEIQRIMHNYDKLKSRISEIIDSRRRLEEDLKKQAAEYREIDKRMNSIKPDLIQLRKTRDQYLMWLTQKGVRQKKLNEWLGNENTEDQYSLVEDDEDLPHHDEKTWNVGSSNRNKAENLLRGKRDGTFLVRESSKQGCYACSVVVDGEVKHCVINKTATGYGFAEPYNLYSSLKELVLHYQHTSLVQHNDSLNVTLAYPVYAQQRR

`CC[C@H](Nc1ncnc2[nH]c(O)nc12)c1oc2ccccc2c(=O)c1-c1cccc(F)c1` [Compound M1, (S)-3-(3-fluorophenyl)-2-(1-((8-hydroxy-9H-purin-6-yl)amino)propyl)-4H-chromen-4-one]: the “activity against the 6 isoform of PI3K” value in assay [1] is “inactive”. The “cell growth inhibition in combination” value in assay [2] was “synergistic results”; in assay [3] it was “synergistic results”; in assay [4], “synergistic results”; in assay [6], “synergistic results”; in assay [7], “synergistic results”; in assay [8] it was “synergistic activity”. Moreover, the “activity against the y isoform of PI3K” value in assay [5] was “inactive”.

The values are drawn from patent publication US12428422B2, “Purine derivatives as SIK-3 inhibitors” (RHIZEN PHARMACEUTICALS AG, priority 2020, dated 2025).
